Data from article PMC8787434, “Discovery of Novel GR Ligands toward Druggable GR Antagonist Conformations Identified by MD Simulations and Markov State Model Analysis” (Advanced Science, 2021).

What was measured:
[1] = target: T1, GR (pCMV-GR11 in Hela cells) (Homo sapiens, UniProt P04150); assay: NF-κB-Luc tethered transrepression reporter assay; assay type: cell-based; settings: read-out: Cell transrepression / NF-κb (IC50 μM)
T1 construct: gene NR3C1; GR expressed from pCMV-GR11 (Addgene #89105), transiently transfected in HeLa cells
T1 sequence (P04150 1-777): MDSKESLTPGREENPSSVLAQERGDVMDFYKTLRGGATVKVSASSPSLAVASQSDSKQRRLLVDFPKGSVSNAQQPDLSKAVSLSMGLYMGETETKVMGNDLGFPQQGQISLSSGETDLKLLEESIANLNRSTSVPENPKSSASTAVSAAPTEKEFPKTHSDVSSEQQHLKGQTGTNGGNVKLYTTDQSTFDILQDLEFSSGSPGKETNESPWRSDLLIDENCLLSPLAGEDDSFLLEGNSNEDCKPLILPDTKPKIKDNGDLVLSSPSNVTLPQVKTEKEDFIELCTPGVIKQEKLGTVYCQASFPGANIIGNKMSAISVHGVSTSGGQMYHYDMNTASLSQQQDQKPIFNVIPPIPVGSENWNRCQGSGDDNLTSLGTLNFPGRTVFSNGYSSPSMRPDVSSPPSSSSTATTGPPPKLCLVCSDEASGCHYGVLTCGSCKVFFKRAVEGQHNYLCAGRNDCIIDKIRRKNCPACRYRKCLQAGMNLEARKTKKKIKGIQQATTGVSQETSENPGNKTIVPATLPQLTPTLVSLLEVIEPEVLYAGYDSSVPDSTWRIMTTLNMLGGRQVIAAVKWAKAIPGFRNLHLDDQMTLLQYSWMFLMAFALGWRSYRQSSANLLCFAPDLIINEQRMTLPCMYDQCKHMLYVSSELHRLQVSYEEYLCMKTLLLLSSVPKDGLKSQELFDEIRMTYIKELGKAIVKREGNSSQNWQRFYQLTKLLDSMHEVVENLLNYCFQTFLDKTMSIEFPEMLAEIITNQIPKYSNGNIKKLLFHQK
Text: NF-κB-Luc tethered transrepression reporter assay on GR (pCMV-GR11 in Hela cells)

[2] = target: T2, GR (LanthaScreen TR-FRET GR Competitive Binding Assay) (Homo sapiens, UniProt P04150); assay: LanthaScreen TR-FRET competitive binding assay
T2 construct: gene NR3C1
T2 sequence (P04150 521-777 limits assumed): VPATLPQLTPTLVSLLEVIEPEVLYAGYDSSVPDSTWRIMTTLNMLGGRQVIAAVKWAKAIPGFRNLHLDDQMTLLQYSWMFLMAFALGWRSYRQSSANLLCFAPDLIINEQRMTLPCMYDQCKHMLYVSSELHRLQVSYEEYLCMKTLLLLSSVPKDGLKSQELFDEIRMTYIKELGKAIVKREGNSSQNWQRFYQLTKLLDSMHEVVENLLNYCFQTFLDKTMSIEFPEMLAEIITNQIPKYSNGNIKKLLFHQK
Text: LanthaScreen TR-FRET competitive binding assay on GR (LanthaScreen TR-FRET GR Competitive Binding Assay)

`CC(=O)N1CCc2cc(S(=O)(=O)C(C)CC(=O)NCC(C)c3ccccc3)ccc21` (stereo not drawn) [HP‐24] was tested, and the IC50 [1] was 2.71 ± 0.72 µM and the IC50 [2] was 2.53 ± 0.12 µM.

Work on `COc1ccccc1CN1Cc2cc(NS(=O)(=O)c3ccc(F)cc3)ccc2OC(C)C1=O` (stereo not drawn) [HP‐26] yielded an IC50 [1] of 12.2 ± 1.95 µM and an IC50 [2] of 4.45 ± 0.36 µM.

With `Cc1ccc(S(=O)(=O)N2CCCc3cc(NS(=O)(=O)c4ccc(F)cc4C)ccc32)cc1` [HP‐67] the IC50 [1] was 2.76 ± 0.18 µM and the IC50 [2] was 1.57 ± 0.54 µM.
